Experimental data published in patent US11638736B2, “Compositions for preventing or treating diseases or disorders associated with neuro-inflammation, neuro-apoptosis, or neuro- oxidative damage and uses thereof” (priority 2018, dated 2023).

How the values were obtained:
TH-positive cells = assay: Immunohistochemical staining of tyrosine hydroxylase (TH) neurons, MPTP-intoxicated mice; type: in vivo, C57BL/6 mice
Description: Brain sections (4 μm thick) were deparaffinized in xylene-alcohol series for 5 min each, with subsequent recovery of antigenic sites on steam fluent (pot value) for 30 min. The slides were washed twice for 5 min with 1× phosphate-buffered saline (PBS) and then immersed in 0.3% hydrogen peroxide for 30 min at 25° C. to block endogenous peroxidase activity. The sections were incubated with 10% goat serum (for polyclonal antibodies) for 30 min and then incubated at 4° C. with the TH primary antibody (Abcam, Cambridge, UK) for 24 h. Subsequently, all samples were incubated with biotinylated goat anti-rabbit IgG (H+L) horseradish peroxidase (HRP)-conjugated antibodies (Zymax). The sections were incubated with 3,3-diaminobenzidine (Vectro Laboratories, Inc., Burlingame, Calif., USA) for 10 min at 37° C. Finally, the tissue sections were counterstained with hematoxylin for 2 min, dehydrated with an alcohol-xylene series, and mounted with coverslips using Permount mounting medium (Thermo Fisher Scientific). The specimens were examined using a Nikon Eclipse TS100 microscope (Nikon, Tokyo, Japan) at 200× magnification, and the microscopy images were analyzed using the OptiView image analysis software (Korea Lab Tech, Seongnam-si, Republic of Korea). Immunopositive neurons were counted manually.

iNos [1] = type: in vivo, C57BL/6 mice; settings: brain
Text: (§1) All experimental animals were approved by the Institutional Animal Care and Use Committee at Konkuk University (IACUC approval number, KU18045), Seoul, Republic of Korea.

p-IκB-α [2] = assay: Western blotting of brain, MPTP-treated mice: p-IκB-α; type: in vivo, C57BL/6 mice; settings: Levodopa
Text: as §1

Bcl-2 = assay: Western blotting of brain, MPTP-treated mice: Bcl-2; type: in vivo, C57BL/6 mice; settings: Levodopa (positive control)
Text: as §1

iNOS [3] = assay: Western blotting of midbrain, MPTP-treated rats: iNOS; type: in vivo, SD rats; settings: levodopa 10 mg/kg
Description: (§3) Four-week-old male SD rats were purchased from Rion Bio, Inc. and were housed in a temperature-controlled (21-22° C.) and light-controlled (12 h light/dark cycle) environment with 70% humidity; they were given free access to water and rodent chow. […] The brains were dissected and analyzed by histological and western blotting analysis.
(§4) Rat brains were lysed in radioimmunoprecipitation assay lysis buffer containing protease inhibitor (Roche, Mannheim, Germany) and centrifuged at 10,000×g for 30 min at 4° C. Total protein levels were determined using a Bio-Rad protein kit (Bio-Rad, Hercules, Calif., USA). The proteins were separated by electrophoresis in a 10-15% sodium dodecyl sulfate-polyacrylamide gel and transferred onto the Immobilon-P transfer membrane (EMD Millipore Co., Bedford, Mass., USA). The membrane was blocked with 5% bovine serum albumin (Sigma-Aldrich). […] Protein bands were detected using a chemiluminescence method (Thermo Fisher Scientific) by a C-DiGit Blot Scanner (Li-COR, Lincoln, Nebr., USA), and their densities were quantified using ImageJ (NIH, Rockville, Md., USA). […]

COX-2 = type: in vivo, SD rats
Description: as §3, §4

p-IκB-α [4] = assay: Western blotting of midbrain, MPTP-treated rats: p-IκB-α; type: in vivo, SD rats; settings: levodopa 10 mg/kg
Description: as §3, §4

Mac-1 [5] = test system: Mac-1
Description: as §3, §4

SH-SY5Y cells = assay: MTT cell viability in MPTP-treated SH-SY5Y cells; type: cell-based, human; settings: 24 h
Description: 1-Methyl-4-phenylpyridinium (MPP+) induces a severe parkinsonian-like syndrome and a significant reduction in dopaminergic cells by the selective inhibition of complex I in the mitochondrial electron transport chain.
(§2) Human Neuroblastoma Cells (SH-SY5Y) (Korean Cell Bank, Seoul, Korea) were cultured in Dulbecco's modified Eagle's medium containing 10% fetal bovine serum (Hyclone, Logan, Utah, USA) and 1% penicillin-streptomycin (GIBCO, Grand Island, N.Y., USA) in a humidified incubator with 5% CO2 at 37° C.
SH-SY5Y ([…]) cells were cultured in a 96-well plate, and cell viability was determined using the MTT (Promega, Madison, Wis., USA) assay as described previously. […] The MTT solution was then added, followed by incubation at 37° C. for 4 h. The supernatant was removed, and the formed formazan crystals were dissolved in dimethyl sulfoxide. The absorbance of the resulting solution was measured at 540 nm using a UVM 340 microplate reader (Biochrom Asys, Cambridge, UK).

Mac-1 [6] = assay: Western blotting, MPTP-treated SH-SY5Y cells: Mac-1; type: cell-based, human; settings: 2-mM MPTP-intoxicated SH-SY5Y cells
Description: as §2

cytochrome C [7] = assay: Western blotting, MPTP-treated SH-SY5Y cells: cytochrome C; type: cell-based, human; settings: MPTP-intoxicated SH-SY5Y cells
Description: as §2

SOD = type: in vivo, C57BL/6 mice; settings: MPTP-treated mice, brain
Text: as §1

cytochrome C [8] = type: in vivo, C57BL/6 mice; settings: MPTP-intoxicated mice, brain
Text: as §1

Compound	numbers of TH-positive cells vs MPTP-intoxicated group (TH-positive cells; MPTP mice, levodopa 2 mg/kg oral)	elevation of iNos expression (iNos [1]; MPTP mice, Levodopa treatment)	increased p-IκB-α level (p-IκB-α [2])	effects of MPTP on Bcl-2 protein expression (Bcl-2)	elevated iNOS expression inhibited vs MPTP control (iNOS [3])	expression level of COX-2 downregulated (COX-2; MPTP rats, levodopa 10 mg/kg)	p-IκB-α level reduced, compared to MPTP control group (p-IκB-α [4])	elevated level of MAC-1 attenuated vs MPTP control (Mac-1 [5]; MPTP rats, levodopa 10 mg/kg)	cell death (SH-SY5Y cells; 1 mM MPTP)	cell death (SH-SY5Y cells; 2 mM MPTP)	Mac-1 protein expression level elevated by, compared with normal cells (Mac-1 [6])	protein expression level of cytochrome C upregulated (cytochrome C [7])	number of TH-positive cells reduced, compared with sham group (TH-positive cells; MPTP-intoxicated mice, 20 mg/kg/day)	expression level of SOD lower than in sham group (SOD)	protein expression level of cytochrome C upregulated by, compared with sham mice (cytochrome C [8])	iNos protein expression level elevated by, compared with sham group (iNos [1]; MPTP-treated mice)	COX-2 protein overexpressed, with reference to sham operated group (COX-2; MPTP-intoxicated rats)	expression of Mac-1 protein elevated, compared with sham groups (Mac-1 [5]; MPTP control rats)
N[C@@H](Cc1ccc(O)c(O)c1)C(=O)O [Levodopa]	significantly elevated	inhibited	slightly restored	significantly reversed	2.9 fold	1.7 fold	1.2 fold	1.9 fold										
CN1CC=C(c2ccccc2)CC1 [MPTP, 1-methyl-4-phenyl-1,2,3,6-tetrahydropyridine]									29.05%	68.89%	0.8 folds	10 folds	more than two-fold	2.3 folds	0.54 folds	0.44 folds	6 fold	6.4 fold
